In ChEMBL document CHEMBL4765228, “Indole-like Trk receptor antagonists” (Eur J Med Chem, 2016):

How the values were obtained:
[1] = biological target: Aurora kinase B (Homo sapiens) (UniProt Q96GD4); assay: Inhibition of human Aurora-B assessed as residual activity at 1 uM relative to control
[2] = biological target: Casein kinase I isoform delta (Homo sapiens) (UniProt P48730); assay: Inhibition of human CK1-delta assessed as residual activity at 0.1 uM relative to control
[3] = biological target: Casein kinase II subunit alpha (Homo sapiens) (UniProt P68400); assay: Inhibition of human CK2alpha1 assessed as residual activity at 1 uM relative to control
Chain of Casein kinase II subunit alpha (Homo sapiens) (P68400 whole entry, looked up): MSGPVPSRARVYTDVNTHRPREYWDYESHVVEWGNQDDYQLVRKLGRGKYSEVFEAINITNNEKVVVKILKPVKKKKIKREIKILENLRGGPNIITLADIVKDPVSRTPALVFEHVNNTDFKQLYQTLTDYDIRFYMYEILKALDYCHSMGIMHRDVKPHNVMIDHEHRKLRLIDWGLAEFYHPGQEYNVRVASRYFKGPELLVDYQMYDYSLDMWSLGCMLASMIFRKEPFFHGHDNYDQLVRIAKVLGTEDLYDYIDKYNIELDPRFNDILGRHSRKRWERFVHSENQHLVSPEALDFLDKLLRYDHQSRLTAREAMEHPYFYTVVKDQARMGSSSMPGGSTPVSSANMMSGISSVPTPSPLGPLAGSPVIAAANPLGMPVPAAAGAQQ

[4] = biological target: Homeodomain-interacting protein kinase 2 (Homo sapiens) (UniProt Q9H2X6); assay: Inhibition of human HIPK2 assessed as residual activity at 0.1 uM relative to control
Chain of Homeodomain-interacting protein kinase 2 (Homo sapiens) (Q9H2X6 whole entry, looked up): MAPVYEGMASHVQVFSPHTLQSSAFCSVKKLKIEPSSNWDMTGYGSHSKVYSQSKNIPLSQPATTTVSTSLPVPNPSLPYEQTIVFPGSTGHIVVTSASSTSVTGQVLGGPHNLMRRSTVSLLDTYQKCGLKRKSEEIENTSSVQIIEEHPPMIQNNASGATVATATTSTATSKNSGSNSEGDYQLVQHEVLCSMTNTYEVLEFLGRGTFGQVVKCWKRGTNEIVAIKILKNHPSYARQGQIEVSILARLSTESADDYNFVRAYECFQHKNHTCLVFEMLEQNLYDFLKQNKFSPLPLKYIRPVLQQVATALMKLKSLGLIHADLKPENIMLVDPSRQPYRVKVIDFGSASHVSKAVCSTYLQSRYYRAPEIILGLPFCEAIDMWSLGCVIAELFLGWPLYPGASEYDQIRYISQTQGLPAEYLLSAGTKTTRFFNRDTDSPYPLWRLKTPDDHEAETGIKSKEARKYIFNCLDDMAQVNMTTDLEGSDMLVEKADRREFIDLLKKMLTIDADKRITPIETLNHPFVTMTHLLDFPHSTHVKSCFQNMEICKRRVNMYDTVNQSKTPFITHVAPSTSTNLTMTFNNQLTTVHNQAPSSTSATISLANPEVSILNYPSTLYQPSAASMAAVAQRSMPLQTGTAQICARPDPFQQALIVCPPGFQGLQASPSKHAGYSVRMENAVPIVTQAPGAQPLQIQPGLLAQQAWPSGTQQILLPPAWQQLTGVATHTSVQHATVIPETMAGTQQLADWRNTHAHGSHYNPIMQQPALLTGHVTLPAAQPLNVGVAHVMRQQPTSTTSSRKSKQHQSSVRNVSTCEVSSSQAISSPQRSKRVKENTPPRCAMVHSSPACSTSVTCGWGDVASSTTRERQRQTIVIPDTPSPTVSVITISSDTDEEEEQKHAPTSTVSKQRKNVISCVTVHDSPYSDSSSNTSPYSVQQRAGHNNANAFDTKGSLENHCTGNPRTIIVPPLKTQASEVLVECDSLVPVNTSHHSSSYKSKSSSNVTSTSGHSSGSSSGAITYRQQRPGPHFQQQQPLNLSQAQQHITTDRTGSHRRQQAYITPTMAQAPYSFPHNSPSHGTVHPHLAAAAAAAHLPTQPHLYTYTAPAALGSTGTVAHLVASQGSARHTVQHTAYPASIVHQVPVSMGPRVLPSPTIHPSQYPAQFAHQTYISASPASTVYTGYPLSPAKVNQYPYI

[5] = biological target: Insulin-like growth factor 1 receptor (Homo sapiens) (UniProt P08069); assay: Inhibition of human IGF1R assessed as residual activity at 0.1 uM relative to control
[6] = biological target: Insulin-like growth factor 1 receptor (Homo sapiens) (UniProt P08069); assay: Inhibition of human IGF1R assessed as residual activity at 1 uM relative to control
[7] = biological target: Mitogen-activated protein kinase kinase kinase 11 (Homo sapiens) (UniProt Q16584); assay: Inhibition of human MAP3K11 assessed as residual activity at 0.1 uM relative to control
Chain of Mitogen-activated protein kinase kinase kinase 11 (Homo sapiens) (Q16584 whole entry, looked up): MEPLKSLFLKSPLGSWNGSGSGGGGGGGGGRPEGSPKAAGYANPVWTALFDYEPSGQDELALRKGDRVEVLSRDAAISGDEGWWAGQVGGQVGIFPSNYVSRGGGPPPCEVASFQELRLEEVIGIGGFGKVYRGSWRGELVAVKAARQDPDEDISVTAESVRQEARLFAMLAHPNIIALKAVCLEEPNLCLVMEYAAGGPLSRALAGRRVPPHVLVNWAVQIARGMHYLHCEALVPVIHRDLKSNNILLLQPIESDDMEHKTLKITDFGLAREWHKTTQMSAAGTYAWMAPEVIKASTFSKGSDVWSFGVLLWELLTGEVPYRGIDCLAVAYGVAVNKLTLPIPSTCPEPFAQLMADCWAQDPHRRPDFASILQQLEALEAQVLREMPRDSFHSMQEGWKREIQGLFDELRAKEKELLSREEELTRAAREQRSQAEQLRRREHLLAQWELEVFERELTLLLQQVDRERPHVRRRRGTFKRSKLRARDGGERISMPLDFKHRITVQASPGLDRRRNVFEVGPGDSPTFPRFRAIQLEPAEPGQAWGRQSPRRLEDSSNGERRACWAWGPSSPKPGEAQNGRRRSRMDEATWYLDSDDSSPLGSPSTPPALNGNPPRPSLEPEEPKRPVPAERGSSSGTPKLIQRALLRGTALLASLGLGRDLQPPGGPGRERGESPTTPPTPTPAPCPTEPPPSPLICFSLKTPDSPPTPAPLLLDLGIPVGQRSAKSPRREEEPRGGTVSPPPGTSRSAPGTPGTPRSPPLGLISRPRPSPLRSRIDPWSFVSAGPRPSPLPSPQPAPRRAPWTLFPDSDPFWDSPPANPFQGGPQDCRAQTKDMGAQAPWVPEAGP

[8] = biological target: Serine/threonine-protein kinase PAK 4 (Homo sapiens) (UniProt O96013); assay: Inhibition of human PAK4 assessed as residual activity at 1 uM relative to control
Homo sapiens [9] = species on record: Homo sapiens; assay: Inhibition of human PKA assessed as residual activity at 0.1 uM relative to control
Homo sapiens [10] = species on record: Homo sapiens; assay: Inhibition of human PKA assessed as residual activity at 1 uM relative to control
[11] = biological target: Serine/threonine-protein kinase N2 (Homo sapiens) (UniProt Q16513); assay: Inhibition of human PRK2 assessed as residual activity at 1 uM relative to control
[12] = biological target: Receptor-interacting serine/threonine-protein kinase 2 (Homo sapiens) (UniProt O43353); assay: Inhibition of human RIPK2 assessed as residual activity at 1 uM relative to control
[13] = biological target: Rho-associated protein kinase 2 (Homo sapiens) (UniProt O75116); assay: Inhibition of human ROCK2 assessed as residual activity at 1 uM relative to control
Chain of Rho-associated protein kinase 2 (Homo sapiens) (O75116 whole entry, looked up): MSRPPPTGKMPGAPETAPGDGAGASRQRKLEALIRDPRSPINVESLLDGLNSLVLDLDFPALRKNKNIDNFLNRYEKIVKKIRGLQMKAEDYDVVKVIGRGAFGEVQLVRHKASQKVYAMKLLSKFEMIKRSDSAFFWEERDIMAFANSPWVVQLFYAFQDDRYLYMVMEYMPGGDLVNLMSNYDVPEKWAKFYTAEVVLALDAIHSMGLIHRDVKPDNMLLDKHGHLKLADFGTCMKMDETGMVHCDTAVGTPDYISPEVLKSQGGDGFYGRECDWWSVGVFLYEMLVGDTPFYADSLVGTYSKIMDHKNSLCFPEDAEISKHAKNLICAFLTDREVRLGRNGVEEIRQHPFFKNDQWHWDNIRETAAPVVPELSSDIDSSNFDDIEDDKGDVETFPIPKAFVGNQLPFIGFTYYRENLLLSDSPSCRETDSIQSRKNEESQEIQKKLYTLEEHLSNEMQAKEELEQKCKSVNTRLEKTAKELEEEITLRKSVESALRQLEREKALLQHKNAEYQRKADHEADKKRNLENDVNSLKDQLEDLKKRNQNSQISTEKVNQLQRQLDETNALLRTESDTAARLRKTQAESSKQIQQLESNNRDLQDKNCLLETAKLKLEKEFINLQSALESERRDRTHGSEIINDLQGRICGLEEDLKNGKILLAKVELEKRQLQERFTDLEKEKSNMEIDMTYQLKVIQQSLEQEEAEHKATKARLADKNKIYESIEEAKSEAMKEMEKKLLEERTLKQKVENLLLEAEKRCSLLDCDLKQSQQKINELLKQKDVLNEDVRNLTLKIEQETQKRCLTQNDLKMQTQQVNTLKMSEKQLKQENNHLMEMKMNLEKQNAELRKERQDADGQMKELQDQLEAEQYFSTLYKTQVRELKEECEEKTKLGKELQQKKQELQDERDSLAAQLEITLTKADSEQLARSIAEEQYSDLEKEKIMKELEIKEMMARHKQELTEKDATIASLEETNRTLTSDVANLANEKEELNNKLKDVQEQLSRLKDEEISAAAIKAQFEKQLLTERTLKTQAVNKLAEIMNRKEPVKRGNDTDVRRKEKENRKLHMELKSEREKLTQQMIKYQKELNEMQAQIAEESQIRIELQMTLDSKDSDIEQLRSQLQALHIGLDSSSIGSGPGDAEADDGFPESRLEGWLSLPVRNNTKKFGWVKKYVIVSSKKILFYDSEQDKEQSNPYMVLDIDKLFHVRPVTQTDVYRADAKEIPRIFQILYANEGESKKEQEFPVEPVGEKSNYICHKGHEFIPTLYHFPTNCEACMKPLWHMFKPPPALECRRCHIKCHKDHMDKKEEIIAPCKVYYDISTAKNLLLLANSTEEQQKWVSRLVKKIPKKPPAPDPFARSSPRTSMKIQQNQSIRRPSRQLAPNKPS

[14] = biological target: Ribosomal protein S6 kinase alpha-5 (Homo sapiens) (UniProt O75582); assay: Inhibition of human RPS6KA5 assessed as residual activity at 0.1 uM relative to control
Chain of Ribosomal protein S6 kinase alpha-5 (Homo sapiens) (O75582 whole entry, looked up): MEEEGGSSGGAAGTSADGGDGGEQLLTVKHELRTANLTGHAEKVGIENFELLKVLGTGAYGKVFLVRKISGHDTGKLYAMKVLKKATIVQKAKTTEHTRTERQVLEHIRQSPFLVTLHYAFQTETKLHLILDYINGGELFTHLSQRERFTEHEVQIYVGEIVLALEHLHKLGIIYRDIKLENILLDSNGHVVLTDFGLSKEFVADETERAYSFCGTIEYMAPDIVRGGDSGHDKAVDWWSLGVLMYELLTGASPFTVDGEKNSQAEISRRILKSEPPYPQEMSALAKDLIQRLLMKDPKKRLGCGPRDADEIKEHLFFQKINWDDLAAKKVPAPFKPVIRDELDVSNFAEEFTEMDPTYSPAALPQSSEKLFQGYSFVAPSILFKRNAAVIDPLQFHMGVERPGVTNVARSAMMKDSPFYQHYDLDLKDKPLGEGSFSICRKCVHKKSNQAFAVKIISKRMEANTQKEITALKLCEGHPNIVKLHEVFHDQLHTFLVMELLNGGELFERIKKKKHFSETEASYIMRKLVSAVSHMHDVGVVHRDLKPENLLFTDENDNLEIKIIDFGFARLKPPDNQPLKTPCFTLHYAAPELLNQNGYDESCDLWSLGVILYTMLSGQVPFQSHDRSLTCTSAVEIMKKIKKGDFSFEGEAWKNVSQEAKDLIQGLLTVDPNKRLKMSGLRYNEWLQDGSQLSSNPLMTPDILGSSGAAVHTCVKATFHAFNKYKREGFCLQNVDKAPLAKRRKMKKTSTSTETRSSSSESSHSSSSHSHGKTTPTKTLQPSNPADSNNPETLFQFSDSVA

[15] = biological target: Ribosomal protein S6 kinase alpha-5 (Homo sapiens) (UniProt O75582); assay: Inhibition of human RPS6KA5 assessed as residual activity at 1 uM relative to control
[16] = biological target: T1, Serine/threonine-protein kinase TBK1 (Homo sapiens) (UniProt Q9UHD2); assay: Inhibition of human TBK1 assessed as residual activity at 0.1 uM relative to control
T1 sequence (whole entry): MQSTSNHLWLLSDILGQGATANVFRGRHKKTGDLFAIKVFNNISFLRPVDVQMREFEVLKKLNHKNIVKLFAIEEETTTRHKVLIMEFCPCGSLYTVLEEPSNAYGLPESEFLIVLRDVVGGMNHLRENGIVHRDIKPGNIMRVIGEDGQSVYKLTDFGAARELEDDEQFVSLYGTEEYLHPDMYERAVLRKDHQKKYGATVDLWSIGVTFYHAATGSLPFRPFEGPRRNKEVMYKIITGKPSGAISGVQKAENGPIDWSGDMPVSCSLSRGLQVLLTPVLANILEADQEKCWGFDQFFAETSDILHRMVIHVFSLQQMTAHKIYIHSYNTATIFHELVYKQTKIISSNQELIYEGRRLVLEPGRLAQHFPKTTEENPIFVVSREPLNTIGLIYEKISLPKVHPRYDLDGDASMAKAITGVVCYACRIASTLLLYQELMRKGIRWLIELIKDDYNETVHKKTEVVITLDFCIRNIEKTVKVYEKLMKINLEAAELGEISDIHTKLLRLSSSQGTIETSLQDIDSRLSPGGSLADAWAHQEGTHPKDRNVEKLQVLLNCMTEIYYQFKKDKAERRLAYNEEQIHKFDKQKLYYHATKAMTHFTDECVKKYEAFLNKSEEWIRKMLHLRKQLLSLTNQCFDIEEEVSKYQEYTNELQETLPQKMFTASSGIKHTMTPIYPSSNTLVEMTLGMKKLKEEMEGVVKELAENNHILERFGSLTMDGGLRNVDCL

[17] = biological target: T2, Dual specificity protein kinase TTK (Homo sapiens) (UniProt P33981); assay: Inhibition of human TTK assessed as residual activity at 0.1 uM relative to control
T2 sequence (whole entry): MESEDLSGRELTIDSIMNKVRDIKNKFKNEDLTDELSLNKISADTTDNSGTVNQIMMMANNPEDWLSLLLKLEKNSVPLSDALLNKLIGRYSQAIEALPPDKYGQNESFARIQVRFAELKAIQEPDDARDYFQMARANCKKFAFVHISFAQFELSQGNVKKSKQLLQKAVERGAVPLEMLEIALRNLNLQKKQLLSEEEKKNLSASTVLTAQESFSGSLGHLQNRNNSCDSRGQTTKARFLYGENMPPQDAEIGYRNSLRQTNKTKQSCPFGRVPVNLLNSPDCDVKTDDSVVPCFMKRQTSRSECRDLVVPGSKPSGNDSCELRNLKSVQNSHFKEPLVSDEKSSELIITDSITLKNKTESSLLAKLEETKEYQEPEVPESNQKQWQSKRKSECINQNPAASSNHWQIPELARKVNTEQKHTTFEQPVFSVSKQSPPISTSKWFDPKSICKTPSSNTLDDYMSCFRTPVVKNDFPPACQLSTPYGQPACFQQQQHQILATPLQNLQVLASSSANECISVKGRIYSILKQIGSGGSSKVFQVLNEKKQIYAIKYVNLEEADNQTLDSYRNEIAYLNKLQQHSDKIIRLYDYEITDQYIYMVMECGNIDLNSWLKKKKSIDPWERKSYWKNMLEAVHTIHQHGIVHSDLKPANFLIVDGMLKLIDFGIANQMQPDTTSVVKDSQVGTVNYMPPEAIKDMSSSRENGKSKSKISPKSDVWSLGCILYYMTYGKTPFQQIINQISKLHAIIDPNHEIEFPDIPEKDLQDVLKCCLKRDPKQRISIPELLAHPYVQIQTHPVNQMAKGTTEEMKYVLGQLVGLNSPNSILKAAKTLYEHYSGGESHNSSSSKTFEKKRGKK

[18] = biological target: T2, Dual specificity protein kinase TTK (Homo sapiens); assay: Inhibition of human TTK assessed as residual activity at 1 uM relative to control
[19] = biological target: Vascular endothelial growth factor receptor 1 (Homo sapiens) (UniProt P17948); assay: Inhibition of human VEGFR1 assessed as residual activity at 1 uM relative to control

Chain of Aurora kinase B (Homo sapiens) (Q96GD4 whole entry, canonical isoform): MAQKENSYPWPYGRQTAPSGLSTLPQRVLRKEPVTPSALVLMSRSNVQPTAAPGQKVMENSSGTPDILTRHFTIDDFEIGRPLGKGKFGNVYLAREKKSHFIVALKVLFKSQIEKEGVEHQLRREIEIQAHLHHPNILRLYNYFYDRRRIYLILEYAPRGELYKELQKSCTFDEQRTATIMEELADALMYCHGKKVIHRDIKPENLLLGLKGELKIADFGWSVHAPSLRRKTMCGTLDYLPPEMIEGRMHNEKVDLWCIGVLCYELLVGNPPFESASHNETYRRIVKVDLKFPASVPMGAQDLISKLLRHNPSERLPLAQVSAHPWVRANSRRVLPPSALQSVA

Row | SMILES | Activity [1] | Activity [2] | Activity [3] | Activity [4] | Activity [5] | Activity [6] | Activity [7] | Activity [8] | Activity (Homo sapiens [9]) | Activity (Homo sapiens [10]) | Activity [11] | Activity [12] | Activity [13] | Activity [14] | Activity [15] | Activity [16] | Activity [17] | Activity [18] | Activity [19]
1 | COc1ccc2c(c1)c(/C=C1\C(=O)Nc3ccc(S(N)(=O)=O)cc31)cn2C | 50% | 87% | 94% | 108% | 105% | 100% | 34% | 68% | 91% | 91% | 89% | 97% | 87% | 103% | 95% | 79% | 109% | 96% | 85%
2 | COc1ccc2c(c1)c(/C=C1\C(=O)Nc3ccc(S(=O)(=O)N(C)C)cc31)cn2C | 71% | 89% | 90% | 109% | 94% | 79% | 84% | 99% | 91% | 98% | 94% | 95% | 89% | 105% | 108% | 100% | 102% | 106% | 93%
3 | CN(C)S(=O)(=O)c1ccc2c(c1)/C(=C/c1cn(C)c3ccc(O)cc13)C(=O)N2 | 11% | 88% | 89% | 120% | 102% | 95% | 80% | 90% | 94% | 103% | 89% | 89% | 69% | 106% | 107% | 96% | 104% | 96% | 93%
4 | CNS(=O)(=O)c1ccc2c(c1)/C(=C/c1cn(C)c3ccc(OC)cc13)C(=O)N2 | 76% | 89% | 100% | 106% | 96% | 60% | 76% | 91% | 91% | 83% | 86% | 100% | 79% | 96% | 88% | 97% | 99% | 86% | 59%
5 | Cn1cc(/C=C2\C(=O)Nc3ccc(S(N)(=O)=O)cc32)c2ccccc21 | 42% | 88% | 96% | 112% | 105% | 107% | 36% | 78% | 94% | 87% | 78% | 84% | 55% | 99% | 93% | 75% | 104% | 85% | 81%
6 | COc1ccc2[nH]cc(/C=C3\C(=O)Nc4ccc(S(N)(=O)=O)cc43)c2c1 | 48% | 92% | 84% | 124% | 98% | 97% | 66% | 82% | 88% | 84% | 81% | 48% | 61% | 93% | 95% | 96% | 101% | 80% | 76%
